According to the NIST ThermoML archive (doi:10.1021/acs.jced.8b00554):
Where “and” joins values, the source holds several entries; their conditions need not be identical. Identical values can stand only once. ± gives the expanded uncertainty stated by the source.

Assay: xn = mol fraction of the nth substance listed
Details: 313.15 K, Liquid, Vibrating tube method

## CCCCCCCCC [nonane] + CCCO
100 kPa, x2 = 0.7021
  mass density: 741.23 ± 4.8 kg/m3
100 kPa, x2 = 0.8941
  mass density: 766.16 ± 4.9 kg/m3
1000 kPa, x2 = 0.7021
  mass density: 742.27 ± 4.8 kg/m3
1020 kPa, x2 = 0.8941
  mass density: 767.45 ± 4.9 kg/m3
2000 kPa, x2 = 0.8941
  mass density: 768.33 ± 4.9 kg/m3
2010 kPa, x2 = 0.7021
  mass density: 743.17 ± 4.8 kg/m3
3000 kPa, x2 = 0.7021
  mass density: 744.09 ± 4.8 kg/m3
3010 kPa, x2 = 0.8941
  mass density: 769.22 ± 4.9 kg/m3
4010 kPa, x2 = 0.7021
  mass density: 745 ± 4.8 kg/m3
4010 kPa, x2 = 0.8941
  mass density: 770.09 ± 4.9 kg/m3
5010 kPa, x2 = 0.7021
  mass density: 745.89 ± 4.8 kg/m3
5010 kPa, x2 = 0.8941
  mass density: 770.95 ± 4.9 kg/m3
6000 kPa, x2 = 0.3229
  mass density: 689.86 ± 4.4 kg/m3
6000 kPa, x2 = 0.8941
  mass density: 771.82 ± 4.9 kg/m3
6010 kPa, x2 = 0.2315
  mass density: 670.36 ± 4.3 kg/m3
6010 kPa, x2 = 0.4272
  mass density: 717.03 ± 4.6 kg/m3
6020 kPa, x2 = 0.1231
  mass density: 666.76 ± 4.3 kg/m3
6020 kPa, x2 = 0.7021
  mass density: 746.77 ± 4.8 kg/m3
7000 kPa, x2 = 0.1231
  mass density: 667.99 ± 4.3 kg/m3
7000 kPa, x2 = 0.3229
  mass density: 691.15 ± 4.4 kg/m3
7000 kPa, x2 = 0.8941
  mass density: 772.68 ± 5 kg/m3
7010 kPa, x2 = 0.7021
  mass density: 747.64 ± 4.8 kg/m3
7020 kPa, x2 = 0.2315
  mass density: 671.62 ± 4.3 kg/m3
7020 kPa, x2 = 0.4272
  mass density: 718.27 ± 4.6 kg/m3
8000 kPa, x2 = 0.1231
  mass density: 669.23 ± 4.3 kg/m3
8000 kPa, x2 = 0.3229
  mass density: 692.44 ± 4.4 kg/m3
8010 kPa, x2 = 0.4272
  mass density: 719.48 ± 4.6 kg/m3
8010 kPa, x2 = 0.7021
  mass density: 748.52 ± 4.8 kg/m3
8010 kPa, x2 = 0.8941
  mass density: 773.53 ± 5 kg/m3
8020 kPa, x2 = 0.2315
  mass density: 672.88 ± 4.3 kg/m3
9000 kPa, x2 = 0.1231
  mass density: 670.48 ± 4.3 kg/m3
9000 kPa, x2 = 0.7021
  mass density: 749.39 ± 4.8 kg/m3
9000 kPa, x2 = 0.8941
  mass density: 774.38 ± 5 kg/m3
9010 kPa, x2 = 0.3229
  mass density: 693.71 ± 4.5 kg/m3
9010 kPa, x2 = 0.4272
  mass density: 720.71 ± 4.6 kg/m3
9020 kPa, x2 = 0.2315
  mass density: 674.14 ± 4.3 kg/m3
10010 kPa, x2 = 0.2315
  mass density: 675.41 ± 4.3 kg/m3
10010 kPa, x2 = 0.4272
  mass density: 721.93 ± 4.6 kg/m3
10010 kPa, x2 = 0.7021
  mass density: 750.23 ± 4.8 kg/m3
10020 kPa, x2 = 0.8941
  mass density: 775.22 ± 5 kg/m3
11000 kPa, x2 = 0.8941
  mass density: 776.04 ± 5 kg/m3
11010 kPa, x2 = 0.1231
  mass density: 672.98 ± 4.3 kg/m3
11010 kPa, x2 = 0.2315
  mass density: 676.62 ± 4.3 kg/m3
11010 kPa, x2 = 0.4272
  mass density: 723.15 ± 4.6 kg/m3
11020 kPa, x2 = 0.3229
  mass density: 696.2 ± 4.5 kg/m3
11020 kPa, x2 = 0.7021
  mass density: 751.07 ± 4.8 kg/m3
12000 kPa, x2 = 0.1231
  mass density: 674.18 ± 4.3 kg/m3
12000 kPa, x2 = 0.3229
  mass density: 697.42 ± 4.5 kg/m3
12010 kPa, x2 = 0.2315
  mass density: 677.87 ± 4.3 kg/m3
12010 kPa, x2 = 0.4272
  mass density: 724.32 ± 4.6 kg/m3
12010 kPa, x2 = 0.7021
  mass density: 751.91 ± 4.8 kg/m3
12020 kPa, x2 = 0.8941
  mass density: 776.87 ± 5 kg/m3
13000 kPa, x2 = 0.2315
  mass density: 679.08 ± 4.4 kg/m3
13000 kPa, x2 = 0.4272
  mass density: 725.44 ± 4.7 kg/m3
13010 kPa, x2 = 0.1231
  mass density: 675.41 ± 4.3 kg/m3
13010 kPa, x2 = 0.3229
  mass density: 698.65 ± 4.5 kg/m3
13010 kPa, x2 = 0.8941
  mass density: 777.67 ± 5 kg/m3
13020 kPa, x2 = 0.7021
  mass density: 752.73 ± 4.8 kg/m3
14000 kPa, x2 = 0.1231
  mass density: 676.57 ± 4.3 kg/m3
14010 kPa, x2 = 0.2315
  mass density: 680.27 ± 4.4 kg/m3
14010 kPa, x2 = 0.3229
  mass density: 699.83 ± 4.5 kg/m3
14010 kPa, x2 = 0.4272
  mass density: 726.63 ± 4.7 kg/m3
14010 kPa, x2 = 0.8941
  mass density: 778.47 ± 5 kg/m3
14020 kPa, x2 = 0.7021
  mass density: 753.54 ± 4.8 kg/m3
15010 kPa, x2 = 0.1231
  mass density: 717.43 ± 4.6 kg/m3 and 677.73 ± 4.3 kg/m3
15010 kPa, x2 = 0.2315
  mass density: 681.42 ± 4.4 kg/m3 and 721.96 ± 4.6 kg/m3
15010 kPa, x2 = 0.3229
  mass density: 726.26 ± 4.7 kg/m3
15010 kPa, x2 = 0.4272
  mass density: 727.76 ± 4.7 kg/m3 and 732.14 ± 4.7 kg/m3
15020 kPa, x2 = 0.3229
  mass density: 700.99 ± 4.5 kg/m3
15020 kPa, x2 = 0.7021
  mass density: 754.35 ± 4.8 kg/m3
15020 kPa, x2 = 0.8941
  mass density: 779.28 ± 5 kg/m3
16000 kPa, x2 = 0.8941
  mass density: 780.06 ± 5 kg/m3
16010 kPa, x2 = 0.2315
  mass density: 682.56 ± 4.4 kg/m3 and 722.75 ± 4.6 kg/m3
16010 kPa, x2 = 0.7021
  mass density: 755.14 ± 4.8 kg/m3
16020 kPa, x2 = 0.1231
  mass density: 718.2 ± 4.7 kg/m3
16020 kPa, x2 = 0.3229
  mass density: 702.15 ± 4.5 kg/m3 and 727.04 ± 4.7 kg/m3
16020 kPa, x2 = 0.4272
  mass density: 728.86 ± 4.7 kg/m3 and 732.94 ± 4.7 kg/m3
17000 kPa, x2 = 0.4272
  mass density: 729.95 ± 4.7 kg/m3 and 733.7 ± 4.7 kg/m3
17010 kPa, x2 = 0.1231
  mass density: 718.99 ± 4.6 kg/m3
17010 kPa, x2 = 0.2315
  mass density: 683.64 ± 4.4 kg/m3 and 723.54 ± 4.6 kg/m3
17010 kPa, x2 = 0.3229
  mass density: 727.83 ± 4.7 kg/m3
17010 kPa, x2 = 0.7021
  mass density: 755.92 ± 4.8 kg/m3
17010 kPa, x2 = 0.8941
  mass density: 780.82 ± 5 kg/m3
17020 kPa, x2 = 0.1231
  mass density: 679.98 ± 4.4 kg/m3
17020 kPa, x2 = 0.3229
  mass density: 703.28 ± 4.5 kg/m3
18000 kPa, x2 = 0.7021
  mass density: 756.69 ± 4.8 kg/m3
18010 kPa, x2 = 0.1231
  mass density: 719.75 ± 4.6 kg/m3
18010 kPa, x2 = 0.2315
  mass density: 684.75 ± 4.5 kg/m3 and 724.3 ± 4.7 kg/m3
18010 kPa, x2 = 0.3229
  mass density: 704.37 ± 4.5 kg/m3 and 728.61 ± 4.7 kg/m3
18010 kPa, x2 = 0.4272
  mass density: 734.49 ± 4.7 kg/m3
18010 kPa, x2 = 0.8941
  mass density: 781.6 ± 5 kg/m3
18020 kPa, x2 = 0.1231
  mass density: 681.03 ± 4.4 kg/m3
